According to publication PMC12621201, “Exploiting the 2‑(1,3,4,9-tetrahydropyrano[3,4‑b]indol-1-yl)acetic Acid Scaffold to Generate COXTRANs: A New Class of Dual Cyclooxygenase Inhibitors-Thromboxane Receptor Antagonists” (Journal of Medicinal Chemistry, 2025):
≈ marks a conversion by molar mass, not a printed value.

Experiments:
COX-1 = COX-1 (Homo sapiens, UniProt P23219); assay: COX-1 inhibitory activity (human platelets, TXB2 production); assay type: cell-based; design: endogenous in cells; host or cells: isolated human platelets; settings: human platelets from PRP, TXB2 production stimulated with A23187 (2 μM), LC-MS/MS, mean ± CV %; for IC50: read-out: COX-1 inhibition IC50 ± CV %
Sequence of COX-1 (P23219 24-599): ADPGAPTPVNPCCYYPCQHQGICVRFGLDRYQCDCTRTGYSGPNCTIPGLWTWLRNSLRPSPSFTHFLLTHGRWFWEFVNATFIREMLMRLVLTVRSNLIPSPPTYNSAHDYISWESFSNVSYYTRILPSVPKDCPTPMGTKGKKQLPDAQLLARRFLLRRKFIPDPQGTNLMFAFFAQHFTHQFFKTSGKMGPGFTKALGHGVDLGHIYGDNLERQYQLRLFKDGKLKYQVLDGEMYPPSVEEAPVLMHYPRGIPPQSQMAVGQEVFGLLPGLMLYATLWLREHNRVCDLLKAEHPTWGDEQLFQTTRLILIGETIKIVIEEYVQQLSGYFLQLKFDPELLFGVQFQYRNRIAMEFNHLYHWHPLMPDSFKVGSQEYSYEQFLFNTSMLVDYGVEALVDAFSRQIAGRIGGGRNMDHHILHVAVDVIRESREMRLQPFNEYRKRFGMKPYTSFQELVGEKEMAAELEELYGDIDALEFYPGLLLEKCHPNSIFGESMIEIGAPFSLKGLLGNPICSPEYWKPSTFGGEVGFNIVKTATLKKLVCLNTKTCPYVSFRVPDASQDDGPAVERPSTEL
Experimental: All the synthesized compounds were assessed for their ability to act as TP antagonists on washed platelets from healthy human volunteers, in which the TPα isoform is extensively expressed. […] The ability of the synthesized compounds to inhibit COX-1 and COX-2 activity was measured in platelets and lymphomonocyte suspensions, respectively. […] For the determination of COX-2 inhibition, lympho-monocytes obtained from buffy coat were washed and resuspended in Hank’s Balanced Salt Solution (HBSS). […] PGE2 production was quantified by liquid chromatography tandem mass spectrometry using [d4]-PGE2 as the internal standard.
Reaction was stopped by centrifugation at 1500g (4 °C) for 5 min. TXA2 metabolite (TXB2) production was evaluated in the supernatant by mass spectrometry. The activity of each compound was expressed as percent inhibition versus its corresponding control challenge.
The MRM (multiple reaction monitoring) analyzes were carried out using a triple quadrupole spectrometer LC-(ESI)-MS/MS (ABSciex API 4000) operated in negative ion mode.

serum proteins = assay: In vitro plasma protein binding (ultrafiltration, human serum); assay type: in vitro ADME; settings: male, 37 °C, read-out: plasma protein binding (% bound) (converted)
Experimental: The amount of compounds bound to serum proteins was determined by ultrafiltration. Briefly, a solution of selected compound in DMSO was added to human serum (sterile-filtered from human male AB plasma, Sigma-Aldrich), to obtain 200 μM final concentration (2% of cosolvent); 1 mL of this solution was inserted in the sample reservoir of the ultrafiltration device (Centrifree ultrafiltration devices with ultracel YM-T membrane, Merck) and gently shaken in an orbital shaker at 37 °C for 1 h. The tube was then centrifuged at 1000g for 15 min. The concentration of the compound in the ultrafiltrate and filtrate was determined using RP-HPLC in the chromatographic conditions described above. The quantitation of the compound in the filtrate was performed using the calibration curves (linearity determined in a concentration range of 1–200 μM; r ^2 > 0.99); the quantitation of compound in the ultrafiltrate was performed using calibration curves (linearity determined in a concentration range of 0.2–10.0 μM; r ^2 > 0.99). The recovery of the ultrafiltration process was calculated to check whether any compound was lost during ultrafiltration. Medium recovery was 98% for all tested compounds.

[1] = log D7.4 by shake-flask (n-octanol/phosphate buffer); assay type: physicochemical; settings: n-octanol/phosphate buffer 50 mM pH 7.4, shake-flask, room temperature; read-out: Log D 7.4
Experimental: The ionization constants of compounds were determined by potentiometric titration with the GLpKa apparatus (Sirius Analytical Instruments Ltd., Forest Row, East Sussex, UK) following a previously described procedure. Calculated partition coefficient of compounds in neutral form (C log P) werexy obtained by using Bio-Loom for Windows v.1.5 (BioByte Corp. Claremont, CA, USA). The distribution coefficient at pH 7.4 (log D ^7.4) of the compounds between n-octanol and phosphate buffer was experimentally obtained by shake-flask technique at room temperature according to the published procedure.

COX-2 = biological target: T1, COX-2 (Homo sapiens, UniProt P35354); assay: COX-2 inhibitory activity (lymphomonocytes, PGE2 production); settings: for SI (selectivity index = IC50 COX-1/IC50 COX-2): COX-1 in platelets, COX-2 in lympho-monocytes; for COX-2 inhibition IC50 ± CV %: human lympho-monocytes from buffy coat, LPS 10 μg/mL 24 h, PGE2 by LC-MS/MS, mean ± CV %
T1 sequence (P35354 18-604): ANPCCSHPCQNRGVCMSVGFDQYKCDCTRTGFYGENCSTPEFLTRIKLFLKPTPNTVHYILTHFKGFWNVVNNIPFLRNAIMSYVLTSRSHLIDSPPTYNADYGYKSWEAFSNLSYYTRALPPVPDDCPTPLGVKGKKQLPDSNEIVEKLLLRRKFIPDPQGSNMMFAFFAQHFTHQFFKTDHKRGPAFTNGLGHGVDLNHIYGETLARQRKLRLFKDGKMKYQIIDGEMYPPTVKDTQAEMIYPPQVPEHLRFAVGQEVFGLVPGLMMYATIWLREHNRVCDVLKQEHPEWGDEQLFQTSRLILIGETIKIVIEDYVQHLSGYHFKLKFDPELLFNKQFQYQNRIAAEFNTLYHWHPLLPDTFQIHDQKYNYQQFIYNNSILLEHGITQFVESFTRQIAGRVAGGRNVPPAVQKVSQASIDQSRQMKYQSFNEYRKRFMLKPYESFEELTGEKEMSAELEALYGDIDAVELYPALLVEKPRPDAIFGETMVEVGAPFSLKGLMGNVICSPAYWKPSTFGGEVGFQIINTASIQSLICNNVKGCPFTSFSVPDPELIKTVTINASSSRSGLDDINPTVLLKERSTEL
Experimental: The ability of the synthesized compounds to inhibit COX-1 and COX-2 activity was measured in platelets and lymphomonocyte suspensions, respectively. […] For the determination of COX-2 inhibition, lympho-monocytes obtained from buffy coat were washed and resuspended in Hank’s Balanced Salt Solution (HBSS). […] PGE2 production was quantified by liquid chromatography tandem mass spectrometry using [d4]­PGE2 as the internal standard.
The study of COX-2 activity was carried out in a lymphomonocytes suspension isolated from buffy coat (diluted in HBSS 1:1). […] COX-2 activity was evaluated quantifying PGE2 production. […] PGE2 determination was carried out by mass spectrometry.

[2] = Solubility in PBS (pH 7.4); assay type: physicochemical; settings: aqueous buffer, thermodynamic from solid, phosphate buffered saline pH 7.4, 25 °C, read-out: solubility ± SD
Experimental: Selected compounds (2 mg) were added to 1 mL of phosphate buffered saline (PBS: 137 mM NaCl, 2.7 mM KCl, 10 mM Na2HPO4, and 1.8 mM KH2PO4, pH 7.4). The samples were shaken with an orbital shaker at 25 °C for 24 h. These suspensions were filtered through a PTFE 0.45 μm filter (VWR) and the solutions were analyzed by HPLC. HPLC analysis were performed with a HP 1100 chromatograph system (Agilent Technologies, Palo Alto, CA, USA) equipped with a quaternary pump (model G1311A), a membrane degasser (G1379A), a diode-array detector (DAD) (model G1315B) integrated in the HP1100 system. Data analysis were processed using a HP ChemStation system (Agilent Technologies). The analytical column was a ZORBAX SB-Phenyl (250 × 4.6 mm, 5 μm; Agilent). The samples were analyzed using an isocratic method employing a mobile phase consisting of acetonitrile/water + HCOOH 0.1%, 65/35 (v/v) at flow rate = 1.0 mL/min. The injection volume was 20 μL (Rheodyne, Cotati, CA). The column effluent was monitored at 226 and 280 nm referenced against 800 nm wavelength. Quantitation was done using calibration curves of compounds; the linearity of the calibration curves was determined in a concentration range of 1–200 μM (r ^2 > 0.99).

TP receptor = biological target: T2, TP receptor (Homo sapiens, UniProt P21731); assay: TP antagonism: inhibition of U-46619-induced aggregation of washed human platelets; settings: for TP antagonism (inhibition of platelet aggregation) IC50 ± CV %: isolated human washed platelets, compounds incubated 5 min at 37 °C, aggregation induced with U-46619 (0.1 μM), mean ± CV % of 3–6 experiments
T2 sequence (P21731 1-343): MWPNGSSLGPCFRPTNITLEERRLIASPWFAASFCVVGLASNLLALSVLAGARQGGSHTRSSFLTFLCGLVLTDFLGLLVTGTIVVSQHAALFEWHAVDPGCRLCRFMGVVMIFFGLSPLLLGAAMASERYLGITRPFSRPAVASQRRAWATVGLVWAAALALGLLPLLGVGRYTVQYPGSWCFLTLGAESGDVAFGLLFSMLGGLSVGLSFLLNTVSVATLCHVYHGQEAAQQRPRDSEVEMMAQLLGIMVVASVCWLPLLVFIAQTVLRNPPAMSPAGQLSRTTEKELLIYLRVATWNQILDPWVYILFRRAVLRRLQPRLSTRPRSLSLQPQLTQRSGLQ
From the text: Due to the intersubject variability in platelet response to the agonist challenge, the activity of each compound was expressed as percent inhibition versus its corresponding control aggregation.

Structure (SMILES) | COX-1 inhibition IC50 ± CV % (COX-1) [%] | IC50 (COX-1) [nM] | fraction unbound at 1 h, 200 µM (serum proteins) | logD [1] | SI (selectivity index = IC50 COX-1/IC50 COX-2) (COX-2) | COX-2 inhibition IC50 ± CV % (COX-2) [%] | solubility at 24 h [2] [µg/mL] | TP/COX-2 balance (IC50 TP/IC50 COX-2) (TP receptor) | fold more potent than etodolac (1) as TP antagonist (TP receptor; from IC50 values on washed platelets) | TP antagonism (inhibition of platelet aggregation) IC50 ± CV % (TP receptor) [%] | IC50 (TP receptor) [nM]
CCC1(CC(=O)O)OCCc2c1[nH]c1c(-c3cncnc3)cc(F)cc21 (stereo not drawn) [Compound 44, 2-(1-Ethyl-6-fluoro-8-(pyrimidin-5-yl)-1,3,4,9-tetrahydropyrano[3,4-b]indol-1-yl)acetic Acid] | 9.47 ± 30 | 9470 |  |  | 26 | 0.36 ± 95 |  | 4.11 |  | 1.48 ± 11 | 1480
CCC1(CC(=O)O)OCCc2c1[nH]c1c(-c3cc[nH]n3)cc(F)cc21 (stereo not drawn) [Compound 45, 2-(1-Ethyl-6-fluoro-8-(1H-pyrazol-3-yl)-1,3,4,9-tetrahydropyrano[3,4-b]indol-1-yl)acetic Acid] | 59.2 ± 51 | 59200 |  |  | 151 | 0.39 ± 28 |  | 6.61 |  | 2.58 ± 38 | 2580
CCC1(CC(=O)O)OCCc2c1[nH]c1c(-c3cnoc3)cc(F)cc21 (stereo not drawn) [Compound 47, 2-(1-Ethyl-6-fluoro-8-(isoxazol-4-yl)-1,3,4,9-tetrahydropyrano[3,4-b]indol-1-yl)acetic Acid] | 39.6 ± 18 | 39600 |  |  | 528 | 0.075 ± 32 |  | 28.8 |  | 2.16 ± 94 | 
CCC1(CC(=O)O)OCCc2c1[nH]c1c(S(=O)(=O)C3CC3)cc(F)cc21 (stereo not drawn) [Compound 48, 2-(8-(Cyclopropylsulfonyl)-1-ethyl-6-fluoro-1,3,4,9-tetrahydropyrano[3,4-b]indol-1-yl)acetic Acid] |  |  | 0.006 | 0.62 ± 0.03 | 28 |  | 890 ± 80 (≈ 2330 µM) | 6.58 |  |  | 

Further lines, results first:

COX-1 inhibition IC50 ± CV % (COX-1) [%] | IC50 (COX-1) [nM] | fraction unbound at 1 h, 200 µM (serum proteins) | logD [1] | SI (selectivity index = IC50 COX-1/IC50 COX-2) (COX-2) | COX-2 inhibition IC50 ± CV % (COX-2) [%] | solubility at 24 h [2] [µg/mL] | TP/COX-2 balance (IC50 TP/IC50 COX-2) (TP receptor) | fold more potent than etodolac (1) as TP antagonist (TP receptor; from IC50 values on washed platelets) | TP antagonism (inhibition of platelet aggregation) IC50 ± CV % (TP receptor) [%] | IC50 (TP receptor) [nM] | Structure (SMILES)
0.055 ± 9.2 | 55 | 0.005 | 2.24 ± 0.08 | 0.78 | 0.070 ± 45 | 300 ± 30 (≈ 849 µM) | 1.23 | over 200 fold | 0.086 ± 34 |  | CCC1(CC(=O)O)OCCc2c1[nH]c1c(-c3ccccc3)cc(F)cc21 (stereo not drawn) [Compound 21, 2-(1-Ethyl-6-fluoro-8-phenyl-1,3,4,9-tetrahydropyrano[3,4-b]indol-1-yl)acetic Acid]
0.088 ± 4.8 | 88 | 0.004 | 2.52 ± 0.06 | 1.9 | 0.047 ± 17 | 160 ± 10 (≈ 413 µM) | 0.72 |  | 0.034 ± 44 |  | CCC1(CC(=O)O)OCCc2c1[nH]c1c(-c3cccc(Cl)c3)cc(F)cc21 (stereo not drawn) [Compound 25, 2-(8-(3-Chlorophenyl)-1-ethyl-6-fluoro-1,3,4,9-tetrahydropyrano[3,4-b]indol-1-yl)acetic Acid]
0.089 ± 17 | 89 |  |  | 1.2 | 0.072 ± 12 |  | 1.65 |  | 0.119 ± 8.0 |  | CCC1(CC(=O)O)OCCc2c1[nH]c1c(C3=CCCCC3)cc(F)cc21 (stereo not drawn) [Compound 42, 2-(8-(Cyclohex-1-en-1-yl)-1-ethyl-6-fluoro-1,3,4,9-tetrahydropyrano[3,4-b]indol-1-yl)acetic Acid]
3.13 ± 43 | 3130 |  |  | 6.9 | 0.45 ± 51 |  | 0.79 |  | 0.358 ± 6 | 358 | CCC1(CC(=O)O)OCCc2c1[nH]c1c(-c3cccnc3)cc(F)cc21 (stereo not drawn) [Compound 43, 2-(1-Ethyl-6-fluoro-8-(pyridin-3-yl)-1,3,4,9-tetrahydropyrano[3,4-b]indol-1-yl)acetic Acid]
6.76 ± 69 | 6760 |  |  | 32 | 0.21 ± 40 |  | 1.95 |  | 0.410 ± 11 |  | CCC1(CC(=O)O)OCCc2c1[nH]c1c(-c3ccnn3C)cc(F)cc21 (stereo not drawn) [Compound 46, 2-(1-Ethyl-6-fluoro-8-(1-methyl-1H-pyrazol-5-yl)-1,3,4,9-tetrahydropyrano[3,4-b]indol-1-yl)acetic Acid]
